Series [1] has as its target T1, β1-40 amyloid fibrils (Homo sapiens, UniProt P05067).
T1 construct: Aggregated β1-40 peptides (Bachem, Torrance, Calif); purchased Bachem, Torrance, Calif
Kind of series: Competitive displacement of labeled complexes 3 or 6 from β1-40 fibrils. The format is binding. The following applies: 25° C., pH 7.4, mean (±S.D.). Here is the method:
Dissociation constants, IC50 and inhibition constants were determined. Aggregated β1-40 peptides (Bachem, Torrance, Calif.; peptide concentrations were determined by amino acid analysis) were prepared by stirring supersaturated solutions of peptide (100 μM) in the standard buffer (10 mM NaH2 PO4, pH 7.4) at room temperature for at least 72 h and remained stirring while aliquots were taken. […] The solution was briefly vortexed and allowed to equilibrate at room temperature for 2 h. The solution was centrifuged for 1 min at 14,000 rpm (16,000 g) and the amount of the labeled ligand bound ([B]) to fibrils was obtained by measuring the radioactivity of the pellets or calculated using the equation [B] =[T] - [F] where [F] is the concentration of the labeled ligand in the supernatant (i.e., amount unbound or free) and [T] is the total amount of the labeled ligand added. A Scatchard plot was used to obtain [B]max (apparent maximum amount of the labeled ligand bound to fibrils) and Kd. (Freifelder, D., Physical Biochemistry: Applications to Biochemistry and Molecular Biology, 2nd ed.; W. H. Freeman & Co., N. Y. Chapter 10, p. 654 (1982)). The [B]max was based on total protein concentration. […] The IC50 value was used to calculate the inhibition constant Ki. (Cheng et al., Biochem. Pharmacol. 22:3099-3108 (1973)).
The relative affinities (Ki 's) of the free bipyridyl ligands were determined by displacement of complexes 3 or 6 (see Table 1). […] The stoichiometry of saturation, as estimated by Scatchard analysis of the binding curves, differed slightly, with 2.7 moles of 3 and 1.6 moles of 6 bound per mole of β1-40.

Series [2] in a line: Peptide solubility. The format is physicochemical. Conditions: 10 mm nah2po4 buffer, pH 7.4.
The mark [3] stands for this setting: [Tc(CNtBu)4 (bpcg)]^+ (6) as labeled ligand, read-out: Inhibition constant (Ki) for β1-40 fibrils.
[4] abbreviates: [Tc(CNtBu)4 (bpcr)]^+ (3) as labeled ligand, read-out: Inhibition constant (Ki) for β1-40 fibrils.

Where two headings read alike, the source gives them in different places.

T1 sequence (P05067 672-711 limits assumed): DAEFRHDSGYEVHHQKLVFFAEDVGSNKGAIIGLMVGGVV

Take `Nc1c(/N=N/c2ccc(-c3ccc(/N=N/c4cc(S(=O)(=O)O)c5ccccc5c4N)cc3)cc2)cc(S(=O)(=O)O)c2ccccc12` [Congo Red (1), Congo Red, reference compound]: the inhibitory constant (Ki) (as a rule, a measure of affinity in units of concentration, obtained from inhibition or displacement) in series [1] (Inhibition constant (Ki) for β1-40 fibrils, [Tc(CNtBu)4 (bpcg)]^+ (6) as labeled ligand) is 560 nM; in series [1] (Inhibition constant (Ki) for β1-40 fibrils, [Tc(CNtBu)4 (bpcr)]^+ (3) as labeled ligand), 460 nM.
For the compound `Nc1c(N=Nc2ccc(-c3ccc(N=Nc4cc(S(=O)(=O)O)c5ccccc5c4N)cn3)nc2)cc(S(=O)(=O)O)c2ccccc12` [compound 2, Bipyridyl-Congo Red], the Ki in series [1] (setting [3]) worked out at 480 nM; in series [1] (setting [4]) it was 510 nM.
For `O=C(O)c1cc(N=Nc2ccc(-c3ccc(N=Nc4ccc(O)c(C(=O)O)c4)cn3)nc2)ccc1O` [compound 5, bipyridal-Chrysamine G], in that order: 420 nM and 760 nM.
As to “β1-40: β1-40 amyloid peptide (Bachem), C-terminally truncated relative of Aβ1-42”, the solubility entry in series [2] is “ca. 1 μM”.

The values are drawn from US6054114A, “Organometallic ligands for the localization and quantification of amyloid in vivo and in vitro” (priority 1997, dated 2000).
